Some test systems named below: DLD-1; DMS-114; DMS-273; HOP-18; LXFL 529; M19-MEL; SNB-78; XF498; RXF 631.
Common to all, as to assay: NCI tumour cell line growth inhibition, 48 h

Experimental findings from ChEMBL document CHEMBL1201862, “PubChem BioAssay data set” (2004) are described below.

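Assay format: 96-well plates, 48-hour exposure. GI50: concentration for 50% inhibition of growth.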 The source made the active and inactive calls. Cut-off read from the data, not from the text of the source: active = GI50 up to about 1.1 µM and inactive = higher. Bounds are passed on as bounds.

Regarding `COC1=C(Br)C(=O)c2nc(C)ccc2C1=O`, the GI50 with DLD-1 was 5.33 µM (inactive); in the test on DMS-114, 15 µM (inactive); in the test with DMS-273 it was 17.2 µM (inactive); in the test with HOP-18 it was 17.1 µM (inactive); in the test with LXFL 529 it was 6.28 µM (inactive); in the test on M19-MEL it was 14.1 µM (inactive). In the test with SNB-78, the GI50 is 18.7 µM (inactive).
Turning to `CCN(CC)c1ccc(/N=C2/C=CC(=C(C#N)C#N)c3ccccc32)c(C)c1`, the GI50 in the test with DLD-1 was 2.44 µM (inactive); in the test with DMS-273 it was 1.85 µM (inactive); with HOP-18, 2.32 µM (inactive); with M19-MEL, 1.94 µM (inactive); in the test with SNB-78, 1.63 µM (inactive); in the test with XF498, 1.44 µM (inactive).
In the case of `Cc1ccc(C)c(NC(=O)CCc2nnc(S)[nH]2)c1`, the GI50 in the test on DLD-1 was 54.1 µM (inactive); in the test with DMS-114, 28.7 µM (inactive); in the test on DMS-273 it was > 100 µM (inactive); in the test on HOP-18 it was > 100 µM (inactive); in the test on LXFL 529 it was > 100 µM (inactive); in the test with M19-MEL it was > 100 µM (inactive). In addition, the GI50 with RXF 631, in the test on SNB-78 and with XF498 was > 100 µM (inactive) throughout.
For `CCOc1cc2c[n+](C)c3c4cc(OC)c(OC)cc4ccc3c2cc1OC`, the GI50 in the test on DLD-1 was > 100 µM (inactive); in the test on DMS-114, > 100 µM (inactive); in the test with HOP-18, 60.8 µM (inactive); with LXFL 529, > 100 µM (inactive); in the test with M19-MEL, > 100 µM (inactive); in the test on RXF 631 it was 4.07 µM (inactive). Further, in the test on SNB-78, the GI50 is > 100 µM (inactive).
For the compound `Cc1cccc(C)c1NC(=O)C(=O)CC(=O)c1cccc([N+](=O)[O-])c1`, the GI50 in the test with DLD-1, in the test with DMS-273, in the test on HOP-18, in the test on LXFL 529, with M19-MEL and in the test with SNB-78 was > 100 µM (inactive) each time. In the test on XF498, the GI50 was > 100 µM (inactive).
On to `CSc1nc(-c2ccccc2)nc(N2CCOCC2)[s+]1`, for which the GI50 with DLD-1 is 91.8 µM (inactive); with DMS-273 it was > 100 µM (inactive); with HOP-18, > 100 µM (inactive); in the test with LXFL 529, 37.3 µM (inactive); in the test with M19-MEL, > 100 µM (inactive); in the test on SNB-78, > 100 µM (inactive).
As for `COc1ccc([C@@H]2OC(=O)C3C2C(=O)O[C@H]3c2ccc(OC)c(OC)c2)cc1OC` (stereo partly drawn), the GI50 in the test with DMS-114, in the test with DMS-273, with HOP-18, with M19-MEL, in the test on RXF 631 and with SNB-78 was > 100 µM (inactive) in each case. Also, the GI50 in the test with XF498 was > 100 µM (inactive).
Regarding `COc1ccc(CC(=O)c2cc(OC)c(OC)cc2C)cc1OC`, the GI50 with DLD-1 is > 100 µM (inactive); in the test on DMS-114, 14.7 µM (inactive); in the test on LXFL 529, 24.8 µM (inactive); with M19-MEL, 37.6 µM (inactive); with SNB-78, > 100 µM (inactive); with XF498, 25.5 µM (inactive).
Consider `Cc1ccc(S(=O)(=O)c2ccc(NC(=O)SCCC(=O)O)cc2)cc1`, for which the GI50 in the test with DLD-1, in the test on DMS-114, in the test on DMS-273, in the test on LXFL 529 and in the test on SNB-78 was > 100 µM (inactive) throughout.
For the compound `NC(=S)N/N=C(\C(=O)Nc1cccc([N+](=O)[O-])c1)c1nc2ccc([N+](=O)[O-])cc2nc1O`, the GI50 is 42 µM (inactive) in the test with DLD-1; 20.7 µM (inactive) in the test with DMS-114; 44.4 µM (inactive) in the test with DMS-273; 15 µM (inactive) in the test on HOP-18; 71.1 µM (inactive) in the test on LXFL 529; > 100 µM (inactive) in the test with M19-MEL. Moreover, the GI50 in the test with RXF 631 was > 100 µM (inactive); with XF498, 36.1 µM (inactive).
`NCCCNCCSSCCCCS(=O)O`: the GI50 in the test on DLD-1 is 45.8 µM (inactive); in the test with DMS-114, > 100 µM (inactive); in the test on DMS-273, 35.8 µM (inactive); with HOP-18, > 100 µM (inactive); with LXFL 529, 23 µM (inactive); in the test with M19-MEL it was 12.6 µM (inactive). In addition, the GI50 was > 100 µM (inactive) in the test with RXF 631, 22.8 µM (inactive) in the test on SNB-78 and 18.2 µM (inactive) in the test on XF498.
Turning to `Cc1ccc(C)c(N2C(=O)C(=O)C(c3nc4ccccc4s3)C(=O)C2=O)c1`, the GI50 in the test on DLD-1, with DMS-114, in the test with DMS-273, in the test with LXFL 529, in the test on M19-MEL and in the test on SNB-78 was > 100 µM (inactive) throughout.
On to `COc1cc(C2C(C(=O)Nc3ccc([N+](=O)[O-])cc3)=C(C)NC(C)=C2C(=O)Nc2ccc([N+](=O)[O-])cc2)ccc1O`, for which the GI50 in the test with DLD-1 was 25.6 µM (inactive); with DMS-114 it was 24.1 µM (inactive); with DMS-273, 21.9 µM (inactive); with HOP-18 it was 27.6 µM (inactive); with LXFL 529, 18.3 µM (inactive); with M19-MEL, 19.3 µM (inactive). Besides, the GI50 in the test with RXF 631 was 32.5 µM (inactive); in the test on SNB-78, 34.8 µM (inactive); in the test on XF498 it was 23.8 µM (inactive).
For `[Zn+2][N+]12CCN3CCN4CCN(CC1)[PH]432` (stereo not drawn), the GI50 in the test on DLD-1, in the test with DMS-114, with DMS-273, in the test on HOP-18, in the test on LXFL 529 and in the test with M19-MEL was > 100 µM (inactive) throughout. In addition, the GI50 with SNB-78 was > 100 µM (inactive).
With `COc1ccc(S(=O)(=O)NNS(C)(=O)=O)cc1`, the GI50 was 87.5 µM (inactive) with DLD-1; > 100 µM (inactive) with DMS-114; > 100 µM (inactive) in the test with DMS-273; > 100 µM (inactive) in the test on LXFL 529; > 100 µM (inactive) in the test with M19-MEL; > 100 µM (inactive) in the test on RXF 631. In addition, the GI50 in the test with XF498 is 60.3 µM (inactive).
Turning to `O=C(Nc1nc2ncn(CCOC(=O)c3ccccc3)c2c(=O)[nH]1)c1ccccc1`, the GI50 with HOP-18 was > 100 µM (inactive); in the test with LXFL 529 it was 22.7 µM (inactive); with RXF 631, 15.4 µM (inactive); in the test with SNB-78, > 100 µM (inactive); in the test on XF498, 20.2 µM (inactive).
As for `CC(C)(C)c1cc(Cc2ccc([N+](C)(C)C)cc2)c(O)c(C(C)(C)C)c1`, the GI50 in the test with DLD-1 is 45.4 µM (inactive); with DMS-114, 7.19 µM (inactive); in the test with DMS-273, 9.64 µM (inactive); in the test with HOP-18 it was 20.1 µM (inactive); in the test on LXFL 529 it was 13.8 µM (inactive); in the test with M19-MEL it was 12.9 µM (inactive). Also, the GI50 in the test with RXF 631 was 45.6 µM (inactive); with SNB-78 it was 14.9 µM (inactive); with XF498, 13 µM (inactive).
With `CC(=O)Nc1ccc(-c2nnc(SCC(=O)Nc3ccc(C)cc3)o2)cc1`, the GI50 in the test with DLD-1 is 14.9 µM (inactive); with DMS-114, 14.8 µM (inactive); in the test with DMS-273, 15.9 µM (inactive); in the test on HOP-18 it was 17.4 µM (inactive); with LXFL 529, 16.3 µM (inactive); in the test on M19-MEL, 17.6 µM (inactive). Moreover, the GI50 in the test with SNB-78 was 16.6 µM (inactive).
In the case of `CC(=O)N1C/C(=C\c2ccc(N(C)C)cc2)C(=O)/C(=C/c2ccc(N(C)C)cc2)C1`, the GI50 with DLD-1 was 68.1 µM (inactive); with DMS-114, 30.2 µM (inactive); in the test on DMS-273 it was 49.8 µM (inactive); in the test on HOP-18 it was 71.9 µM (inactive); with LXFL 529 it was 64 µM (inactive); in the test with M19-MEL it was 33.6 µM (inactive). Further, the values for the GI50 in the test on RXF 631, in the test with SNB-78 and with XF498 were 55.2 µM (inactive), 85.9 µM (inactive) and > 100 µM (inactive), respectively.
Take `N#C/C(=C\c1cc2ccccc2c2ccccc12)c1ccccc1`: the GI50 was 5.6 µM (inactive) in the test with DLD-1; 3.05 µM (inactive) with DMS-273; 18.7 µM (inactive) in the test on HOP-18; 14.4 µM (inactive) in the test with LXFL 529; 7.29 µM (inactive) in the test with M19-MEL; 4.06 µM (inactive) in the test with SNB-78. The GI50 in the test with XF498 was 3.22 µM (inactive).
As for `CN(C)CCC(CCN(C)C)=NOC(=O)c1ccccc1`, the GI50 in the test with DLD-1, in the test with DMS-114, in the test with DMS-273, in the test on HOP-18, in the test with LXFL 529 and in the test on M19-MEL was > 100 µM (inactive) throughout. Besides, the GI50 in the test with RXF 631 and in the test on XF498 was > 100 µM (inactive) in each case.
In the case of `Brc1ccc(/C=N/C23CC4CC(CC(C4)C2)C3)cc1`, the GI50 in the test with DLD-1, in the test on DMS-114, in the test on DMS-273, with HOP-18, in the test with LXFL 529 and in the test on M19-MEL was > 100 µM (inactive) throughout. The GI50 in the test on RXF 631, in the test with SNB-78 and in the test with XF498 was > 100 µM (inactive) throughout.
For `Cc1cc(NC(=O)NC(=O)c2ccccc2N(C)C)ccc1Oc1ncc(Br)cn1`, the GI50 was 0.373 µM (active) in the test on DLD-1; 0.219 µM (active) in the test with DMS-114; > 100 µM (inactive) in the test with HOP-18; 0.39 µM (active) in the test on LXFL 529; 0.455 µM (active) in the test on M19-MEL; 1.05 µM (active) with SNB-78. Also, the GI50 in the test with XF498 is 0.288 µM (active).
On to `N#C/C(=C\c1c[nH]c2ccccc12)C(=O)c1ccc(O)c(O)c1`, for which the GI50 was 47.9 µM (inactive) in the test on DLD-1; 36.2 µM (inactive) with DMS-273; 38.5 µM (inactive) in the test with HOP-18; 39.4 µM (inactive) in the test with LXFL 529; 83.2 µM (inactive) with M19-MEL; 48.8 µM (inactive) in the test with XF498.
